Assay results published in patent US5922324A, “Propolis extract with improved water-solubility” (Kabushiki Kaisha Hayashibara Seibutsu Kagaku Kenkyujo, priority 1997, dated 1999).
Converted amounts (≈) assume the structure as drawn.

Key:
[1] = Confirmation of insolubilized substance C (HPLC of supernatant after 101-fold dilution); assay type: physicochemical
Excerpt: A propolis mass was disrupted, injected into 3 columns and fed with 50 v/v % aqueous ethanol solution by counter-current extraction method to dissolve and extract the effective ingredients of propolis. The extract was filtered to obtain a liquid propolis extract containing about 20 w/w % dry solid in a yield of about 30% of the material propolis, d.s.b.
The pH of the sample was 5.0 when measured with a pH-meter. The sample was placed in a beaker and diluted with water by 101-fold into a dilute aqueous ethanol solution in the form of a white suspension which was then allowed to stand at 25° C. for an hour under gentle stirring conditions and centrifuged to obtain a supernatant. High-performance liquid chromatography (HPLC) was used to quantify the concentration of substance C in the supernatant according to the method as described in Bioscience, Biotechnology, and Biochemistry, Vol. 58, No. 5, pp. 945-946 (1994). As a control, the sample was diluted by 101-fold with ethanol in place of water.

[2] = Water-solubility of substance C in propolis extract (supernatant concentration); assay type: physicochemical
Protocol: The sample in Experiment 1 was mixed with an equal amount of 50 v/v % aqueous ethanol solution either with or without an adequate amount of sodium hydroxide, and the mixture with a pH 5.0 was adjusted to a pH of 5.2, 5.5, 5.8, 6.0, 6.2, 6.4, 6.8, 7.0, 7.2, 7.5 or 8.1 before prepared into an about 10 w/w % liquid propolis extract, d.s.b., as samples used in the following experiments.
After one-month standing at 25° C., the samples were tested similarly as in Experiments 2-(1) to 2-(4) and subjected to a sensory evaluation using 12 panels.

In the case of `CC(C)=CCc1cc(C=CC(=O)O)cc(CC=C(C)C)c1O` [substance C, 3-[4-hydroxy-3,5-bis(3-methyl-2-butenyl)phenyl]-2-propenoic acid], the “Concentration of substance C in water dilution relative to control diluted with ethanol” value ([1]; 101-fold dilution) is reported as 0.06%, the solubility kinetic ([1]; dilute aqueous ethanol, organic solvent or mixture, 25° C., pH about 5.0 extract, 10 w/w % d.s.b. in 50 v/v % aqueous ethanol, diluted with water by about 100 folds, read-out: Concentration in which substance C dissolves in dilute aqueous ethanol solution) is reported as 0.03 µg/mL (≈ 0.0999 µM) and the “Concentration of substance C in supernatant of dilution diluted with ethanol (Control)” value ([1]; diluted with ethanol by 101-fold, control) is reported as 46.7 ppm. The “Solubilization of substance C on dilution with water (in words)” value ([1]; dilution with water into dilute aqueous ethanol solution) was “insolubilized most of substance C”, the “Amount of substance C of the sample contained in sediments collected by centrifugation” value ([1]; sediments dissolved in ethanol, after dilution with water) was “at least 99%” and the “Water-solubility of substance C (in words)” value ([2]; pH dependence) was “greatly increased when adjusted to a pH of over 5.5”. The “improvement of solubility of substance C in dilute aqueous ethanol solution” value ([2]; pH increased from about 5.0 to 5.5-7.0) was 15-100 folds.
